System: MW1
Experiment: Elastase production in culture supernatant, MW1
Assay type: cell-based, Pseudomonas aeruginosa
Experimental: Elastase activity was measured according to the procedure described by Pearson et al. in J. Bacteriol. 179:5756-67 (1997) and pyocyanin concentration was measured according to the procedure described by Essar et al. in J. Bacteriol. 172:884-900 (1990). Protocols were modified slightly to be consistent with the conditions of transcriptional profiling. Cultures were grown in LB amended with 50 mM MOPS pH 7.0. Mid-log cultures were either subcultured directly (MW1) or washed twice with medium (PAO1) and then subcultured to an absorbance at 600 nm (A600) of 0.01. Cultures (1 mL) were grown in the presence of test compounds in 16 mm tubes at 37° C., 250 rpm.
For elastase activity, cultures were grown for 6 hours. Cells were removed by centrifugation and the culture supernatant filtered through a 0.2 μm filter. A 100 μL volume of filtered supernatant was added to 900 μL of 5 mg/mL Elastin Congo Red (Elastin Products Company; Owensville, Mo.) in 1 mM CaCl2, 100 mM Tris HCL, pH 7.2. Reactions were incubated at 37° C., 250 rpm for 18 h. Reactions were stopped by the addition of 100 μL 0.12 M EDTA, undigested substrate removed through centrifugation and the absorbance at 495 nm measured.

| Structure (SMILES) | elastase activity in supernatant restored by exogenous signal (MW1, 0.3 μM (half-maximal) 3-oxo-C12-HSL alone) | elastase activity in supernatant restored by exogenous signal (MW1, saturating 3-oxo-C12-HSL (25 μM) in addition to saturating C4-HSL (25 μM)) | elastase activity in supernatant restored by exogenous signal (MW1, 25 μM C4-HSL added to 0.3 μM 3-oxo-C12-HSL) |
| --- | --- | --- | --- |
| CCCCCCCCCC(=O)CC(=O)NC1CCOC1=O (stereo not drawn) [3-oxo-C12-HSL, 3-oxo-dodecanoyl homoserine lactone] | restored about one third of the achievable activity | did not increase elastase activity further | – |
| CCCC(=O)N[C@H]1CCOC1=O [Compound C4-HSL, butyryl homoserine lactone] | – | – | maximal elastase activity was measured |

— patent US20090123512A1, “Quorum Sensing Modulators” (priority 2005, published 2009)
